In ChEMBL document CHEMBL3865818, “4,5-Diaryl-3H-1,2-dithiole-3-thiones and related compounds as combretastatin A-4/oltipraz hybrids: Synthesis, molecular modelling and evaluation as antiproliferative agents and inhibitors of tubulin” (Eur J Med Chem, 2016):

Experiments:
[1] = Antiproliferative activity against human KB cells measured after 72 hrs by MTT assay; assay type: functional, cell-based
[2] = Cell cycle arrest in human KB cells assessed as accumulation at SubG1-phase at 0.05 uM measured after 12 hrs by propidium iodide staining-based flow cytometry (reference value: 1.23%); assay type: functional
[3] = Cell cycle arrest in human KB cells assessed as accumulation at S-phase at 0.05 uM measured after 12 hrs by propidium iodide staining-based flow cytometry (reference value: 15.5%); assay type: functional
[4] = Cell cycle arrest in human KB cells assessed as accumulation at SubG1-phase at 0.05 uM measured after 24 hrs by propidium iodide staining-based flow cytometry (reference value: 0.76%); assay type: functional
[5] = Cell cycle arrest in human KB cells assessed as accumulation at G2/M-phase at 0.05 uM measured after 24 hrs by propidium iodide staining-based flow cytometry (reference value: 28.84%); assay type: functional
[6] = Cell cycle arrest in human KB cells assessed as accumulation at G0/G1-phase at 0.05 uM measured after 36 hrs by propidium iodide staining-based flow cytometry (reference value: 51.51%); assay type: functional
[7] = Cell cycle arrest in human KB cells assessed as accumulation at S-phase at 0.05 uM measured after 36 hrs by propidium iodide staining-based flow cytometry (reference value: 16.51%); assay type: functional
[8] = Cell cycle arrest in human KB cells assessed as accumulation at G2/M-phase at 0.05 uM measured after 36 hrs by propidium iodide staining-based flow cytometry (reference value: 27.34%); assay type: functional
[9] = Cell cycle arrest in human KB cells assessed as accumulation at S-phase at 0.05 uM measured after 48 hrs by propidium iodide staining-based flow cytometry (reference value: 13.32%); assay type: functional
[10] = Cell cycle arrest in human KB cells assessed as accumulation at G0/G1-phase at 0.05 uM measured after 60 hrs by propidium iodide staining-based flow cytometry (reference value: 63.85%); assay type: functional
[11] = Cell cycle arrest in human KB cells assessed as accumulation at S-phase at 0.05 uM measured after 60 hrs by propidium iodide staining-based flow cytometry (reference value: 12.66%); assay type: functional
[12] = Cell cycle arrest in human KB cells assessed as accumulation at G0/G1-phase at 0.1 uM measured after 12 hrs by propidium iodide staining-based flow cytometry (reference value: 48.26%); assay type: functional
[13] = Cell cycle arrest in human KB cells assessed as accumulation at G2/M-phase at 0.1 uM measured after 12 hrs by propidium iodide staining-based flow cytometry (reference value: 30.19%); assay type: functional
[14] = Cell cycle arrest in human KB cells assessed as accumulation at S-phase at 0.1 uM measured after 24 hrs by propidium iodide staining-based flow cytometry (reference value: 16.96%); assay type: functional
[15] = Cell cycle arrest in human KB cells assessed as accumulation at G0/G1-phase at 0.1 uM measured after 36 hrs by propidium iodide staining-based flow cytometry (reference value: 51.51%); assay type: functional
[16] = Cell cycle arrest in human KB cells assessed as accumulation at G2/M-phase at 0.1 uM measured after 36 hrs by propidium iodide staining-based flow cytometry (reference value: 27.34%); assay type: functional
[17] = Cell cycle arrest in human KB cells assessed as accumulation at SubG1-phase at 0.1 uM measured after 48 hrs by propidium iodide staining-based flow cytometry (reference value: 0.61%); assay type: functional
[18] = Cell cycle arrest in human KB cells assessed as accumulation at S-phase at 0.1 uM measured after 48 hrs by propidium iodide staining-based flow cytometry (reference value: 13.32%); assay type: functional
[19] = Cell cycle arrest in human KB cells assessed as accumulation at G0/G1-phase at 0.1 uM measured after 60 hrs by propidium iodide staining-based flow cytometry (reference value: 63.85%); assay type: functional
[20] = Cell cycle arrest in human KB cells assessed as accumulation at G2/M-phase at 0.1 uM measured after 60 hrs by propidium iodide staining-based flow cytometry (reference value: 18.9%); assay type: functional
[21] = Cell cycle arrest in human KB cells assessed as accumulation at G0/G1-phase at 0.2 uM measured after 12 hrs by propidium iodide staining-based flow cytometry (reference value: 48.26%); assay type: functional
[22] = Cell cycle arrest in human KB cells assessed as accumulation at S-phase at 0.2 uM measured after 12 hrs by propidium iodide staining-based flow cytometry (reference value: 15.5%); assay type: functional
[23] = Cell cycle arrest in human KB cells assessed as accumulation at G2/M-phase at 0.2 uM measured after 12 hrs by propidium iodide staining-based flow cytometry (reference value: 30.19%); assay type: functional
[24] = Cell cycle arrest in human KB cells assessed as accumulation at S-phase at 0.2 uM measured after 24 hrs by propidium iodide staining-based flow cytometry (reference value: 16.96%); assay type: functional
[25] = Cell cycle arrest in human KB cells assessed as accumulation at G2/M-phase at 0.2 uM measured after 24 hrs by propidium iodide staining-based flow cytometry (reference value: 28.84%); assay type: functional
[26] = Cell cycle arrest in human KB cells assessed as accumulation at S-phase at 0.2 uM measured after 36 hrs by propidium iodide staining-based flow cytometry (reference value: 16.51%); assay type: functional
[27] = Cell cycle arrest in human KB cells assessed as accumulation at G0/G1-phase at 0.2 uM measured after 48 hrs by propidium iodide staining-based flow cytometry (reference value: 58.26%); assay type: functional
[28] = Cell cycle arrest in human KB cells assessed as accumulation at S-phase at 0.2 uM measured after 48 hrs by propidium iodide staining-based flow cytometry (reference value: 13.32%); assay type: functional
[29] = Cell cycle arrest in human KB cells assessed as accumulation at G2/M-phase at 0.2 uM measured after 48 hrs by propidium iodide staining-based flow cytometry (reference value: 23.36%); assay type: functional
[30] = Cell cycle arrest in human KB cells assessed as accumulation at S-phase at 0.2 uM measured after 60 hrs by propidium iodide staining-based flow cytometry (reference value: 12.66%); assay type: functional
[31] = Cell cycle arrest in human KB cells assessed as accumulation at G2/M-phase at 0.2 uM measured after 60 hrs by propidium iodide staining-based flow cytometry (reference value: 18.9%); assay type: functional
[32] = Cell cycle arrest in human KB cells assessed as accumulation at S-phase measured after 12 hrs by propidium iodide staining-based flow cytometry (reference value: 15.5%); assay type: functional
[33] = Cell cycle arrest in human KB cells assessed as accumulation at SubG1-phase measured after 24 hrs by propidium iodide staining-based flow cytometry (reference value: 0.76%); assay type: functional
[34] = Cell cycle arrest in human KB cells assessed as accumulation at G2/M-phase measured after 24 hrs by propidium iodide staining-based flow cytometry (reference value: 28.84%); assay type: functional
[35] = Cell cycle arrest in human KB cells assessed as accumulation at G0/G1-phase measured after 36 hrs by propidium iodide staining-based flow cytometry (reference value: 51.51%); assay type: functional
[36] = Cell cycle arrest in human KB cells assessed as accumulation at G2/M-phase measured after 36 hrs by propidium iodide staining-based flow cytometry (reference value: 27.34%); assay type: functional

COc1ccc(-c2ssc(=O)c2-c2cc(OC)c(OC)c(OC)c2)cc1N
IC50 [1]: 60 nM | Activity [2]: 7.09% | Activity [3]: 16.4% | Activity [4]: 6.04% | Activity [5]: 36.6% | Activity [6]: 50.3% | Activity [7]: 11.7% | Activity [8]: 23% | Activity [9]: 10.9% | Activity [10]: 37.8% | Activity [11]: 8.75% | Activity [12]: 8.66% | Activity [13]: 62.8% | Activity [14]: 25.4% | Activity [15]: 25.5% | Activity [16]: 23.7% | Activity [17]: 33.6% | Activity [18]: 15.3% | Activity [19]: 12.3% | Activity [20]: 10% | Activity [21]: 1.63% | Activity [22]: 22.8% | Activity [23]: 70.2% | Activity [24]: 22.2% | Activity [25]: 55.8% | Activity [26]: 15.9% | Activity [27]: 11.7% | Activity [28]: 13.1% | Activity [29]: 19.4% | Activity [30]: 6.33% | Activity [31]: 19.9% | Activity [32]: 21.5% | Activity [33]: 12.3% | Activity [34]: 52.1% | Activity [35]: 14.4% | Activity [36]: 27.9%
